In patent publication US20060281071A1, “Stearoyl-CoA desaturase assay” (priority 2005, published 2006):

How the values were obtained:
Details in all cases: Hela microsomes 100 μg, 14C-acyl-CoA, NADH (FIG. 3)
mSCD4 = assay: Δ9-desaturase activity in microsomes of Hela cells over-expressing mSCD4; format: biochemical, mouse
Experimental: (§1) HeLa cells were cultured at 37° C. in a humidified 5% CO2 atmosphere in Dulbecco's modified Eagle's medium supplemented with 10% (v/v) fetal bovine serum and penicillin/streptomycin. The cells were resuspended in cytomix buffer (120 mM KCl, 0.15 mM CaCl2, 25 mM Hepes/KOH, pH 7.6, 2 mM EGTA, 5 mM MgCl2), and 400 μl of suspension was transferred to a 0.4-cm electroporation cuvette (Invitrogen). 35 μg of pcDNA3 DNA harboring either human or mouse SCD constructs were transfected into Hela cells which have very low Δ9-desaturase activity. DNA was added to the cell suspension in the cuvette and mixed well. The mixture was then exposed to a single electric pulse of 300 V with a capacitance of 1000 microfarads using an Invitrogen pulse system. The cells were allowed to recover in culture medium at 37° C. (5% CO2 atmosphere) for 48 h before harvesting and performing SCD activity assays.
(§2) Δ9-desaturase activity: Microsomes were purified from Hela cells by differential centrifugation and resuspended in a 0.1 M potassium phosphate buffer (pH 6.8). Δ9-desaturase activity was assayed at 25° C. for 7 minutes with either [^14C] stearoyl-CoA or [^14C] palmito-CoA, 2 mM NADH, and 100 μg microsomal protein (Miyazaki, M. et al. (2001) J Biol Chem 276, 39455-39461).

mSCD2 = biological target: T1, mSCD2 (Mus musculus, UniProt P13011); assay: Δ9-desaturase activity in microsomes of Hela cells over-expressing mSCD2; format: biochemical
T1 sequence (P13011 1-358): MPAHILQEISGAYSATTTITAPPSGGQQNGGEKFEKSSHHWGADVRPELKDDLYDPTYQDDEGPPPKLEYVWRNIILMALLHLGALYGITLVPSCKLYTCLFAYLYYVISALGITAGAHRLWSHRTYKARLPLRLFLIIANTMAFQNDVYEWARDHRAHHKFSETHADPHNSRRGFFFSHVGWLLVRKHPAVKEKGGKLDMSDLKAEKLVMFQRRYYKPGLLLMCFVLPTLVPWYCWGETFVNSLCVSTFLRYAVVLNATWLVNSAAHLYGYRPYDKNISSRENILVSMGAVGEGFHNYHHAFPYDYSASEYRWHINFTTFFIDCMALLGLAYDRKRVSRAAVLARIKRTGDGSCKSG
Experimental: as §1, §2

hSCD1 = biological target: T2, hSCD1 (Homo sapiens, UniProt O00767); assay: Δ9-desaturase activity in microsomes of Hela cells over-expressing hSCD1; format: biochemical; parameters: Cloning of the full-length human and mouse SCD cDNAs: The full coding region of human SCDs; expressed in transfected cells
T2 sequence (O00767 1-359): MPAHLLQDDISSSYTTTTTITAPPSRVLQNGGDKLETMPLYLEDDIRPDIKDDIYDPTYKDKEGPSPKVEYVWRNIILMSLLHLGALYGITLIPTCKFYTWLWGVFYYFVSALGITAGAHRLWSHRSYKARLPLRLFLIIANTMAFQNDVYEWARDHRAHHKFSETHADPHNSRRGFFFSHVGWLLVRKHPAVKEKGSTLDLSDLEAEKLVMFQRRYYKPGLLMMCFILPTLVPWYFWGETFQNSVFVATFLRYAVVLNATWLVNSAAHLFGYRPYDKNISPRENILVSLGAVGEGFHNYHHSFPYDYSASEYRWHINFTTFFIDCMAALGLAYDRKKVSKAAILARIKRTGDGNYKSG
Experimental: as §1, §2

mSCD1 = biological target: T3, mSCD1 (Mus musculus, UniProt P13516); assay: Δ9-desaturase activity in microsomes of Hela cells over-expressing mSCD1; format: biochemical
T3 sequence (P13516 1-355): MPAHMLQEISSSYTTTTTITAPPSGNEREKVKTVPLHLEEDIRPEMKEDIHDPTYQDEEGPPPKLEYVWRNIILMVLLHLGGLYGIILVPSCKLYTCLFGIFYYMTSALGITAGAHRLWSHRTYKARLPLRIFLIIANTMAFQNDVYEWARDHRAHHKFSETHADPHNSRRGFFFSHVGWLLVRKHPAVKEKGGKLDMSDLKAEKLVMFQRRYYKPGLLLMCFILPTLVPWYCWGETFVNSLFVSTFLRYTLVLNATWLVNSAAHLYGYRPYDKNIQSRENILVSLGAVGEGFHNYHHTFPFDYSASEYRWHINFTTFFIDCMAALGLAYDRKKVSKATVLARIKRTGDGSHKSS
Experimental: as §1, §2

hSCD5 = biological target: T4, hSCD5 (Homo sapiens, UniProt Q86SK9); assay: Δ9-desaturase activity in microsomes of Hela cells over-expressing hSCD5; format: biochemical; parameters: Cloning of the full-length human and mouse SCD cDNAs: The full coding region of human SCDs; expressed in transfected cells
T4 sequence (Q86SK9 1-330): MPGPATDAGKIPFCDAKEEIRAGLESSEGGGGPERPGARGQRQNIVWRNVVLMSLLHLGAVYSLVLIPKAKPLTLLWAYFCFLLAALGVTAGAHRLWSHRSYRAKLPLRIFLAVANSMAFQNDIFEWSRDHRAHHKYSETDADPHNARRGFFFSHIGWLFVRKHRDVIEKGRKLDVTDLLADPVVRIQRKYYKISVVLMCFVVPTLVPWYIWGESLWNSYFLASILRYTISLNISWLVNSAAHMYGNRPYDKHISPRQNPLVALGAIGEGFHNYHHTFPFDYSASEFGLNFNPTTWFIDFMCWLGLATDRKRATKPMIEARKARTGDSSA
Experimental: as §1, §2

## CCCCCCCCCCCCCCCCCC(=O)SCCNC(=O)CCNC(=O)[C@H](O)C(C)(C)COP(=O)(O)OP(=O)(O)OC[C@H]1O[C@@H](n2cnc3c(N)ncnc32)[C@H](O)[C@@H]1OP(=O)(O)O [18:0-CoA, stearoyl-CoA]
mSCD4
  Δ9-desaturase activity towards 18:0-CoA relative to 16:0-CoA: 2.0 fold
mSCD2
  Δ9-desaturase activity towards 18:0-CoA relative to 16:0-CoA: 1.6 fold
hSCD1
  Δ9-desaturase activity towards 18:0-CoA relative to 16:0-CoA: 2.2 fold
mSCD1
  Δ9-desaturase activity towards 18:0-CoA relative to 16:0-CoA: 2.2 fold
hSCD5
  utilization of 18:0-CoA relative to 16:0-CoA: 6 fold
